Data as given in patent US6908935B2, “Calcium receptor modulating agents” (Amgen Inc., priority 2002, dated 2005).

Target: T1, human parathyroid cell Ca^2+ receptor (hPCaR) (Homo sapiens, UniProt P41180)
T1 construct: expressed in transfected cells
T1 sequence (P41180 20-1078): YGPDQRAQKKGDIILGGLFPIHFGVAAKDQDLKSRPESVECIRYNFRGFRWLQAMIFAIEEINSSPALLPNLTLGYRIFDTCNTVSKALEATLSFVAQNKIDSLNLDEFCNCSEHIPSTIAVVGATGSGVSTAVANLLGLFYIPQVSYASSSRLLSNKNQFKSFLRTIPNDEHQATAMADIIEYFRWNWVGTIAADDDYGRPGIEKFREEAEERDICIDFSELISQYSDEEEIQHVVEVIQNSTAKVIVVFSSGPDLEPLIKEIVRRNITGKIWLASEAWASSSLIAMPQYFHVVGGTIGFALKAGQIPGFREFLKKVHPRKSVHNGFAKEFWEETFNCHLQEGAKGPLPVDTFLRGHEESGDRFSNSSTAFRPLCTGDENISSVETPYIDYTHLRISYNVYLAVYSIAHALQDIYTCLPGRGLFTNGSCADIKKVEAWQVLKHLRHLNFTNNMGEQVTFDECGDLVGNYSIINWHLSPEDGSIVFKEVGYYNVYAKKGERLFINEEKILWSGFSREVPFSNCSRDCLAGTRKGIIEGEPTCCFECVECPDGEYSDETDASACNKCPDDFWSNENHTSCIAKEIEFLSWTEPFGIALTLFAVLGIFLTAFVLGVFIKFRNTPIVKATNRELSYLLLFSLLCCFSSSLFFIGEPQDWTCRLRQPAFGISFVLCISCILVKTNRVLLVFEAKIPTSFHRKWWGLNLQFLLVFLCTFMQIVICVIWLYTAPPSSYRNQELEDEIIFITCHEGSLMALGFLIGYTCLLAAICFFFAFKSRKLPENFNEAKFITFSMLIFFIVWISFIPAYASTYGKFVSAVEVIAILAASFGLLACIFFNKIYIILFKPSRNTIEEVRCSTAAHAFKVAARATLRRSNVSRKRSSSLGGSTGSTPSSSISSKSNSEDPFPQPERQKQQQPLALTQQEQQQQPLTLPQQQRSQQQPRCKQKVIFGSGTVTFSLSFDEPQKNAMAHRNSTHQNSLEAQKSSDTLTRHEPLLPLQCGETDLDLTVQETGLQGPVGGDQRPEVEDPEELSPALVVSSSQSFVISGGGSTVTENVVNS
Assay: [Ca2+]i measurement with fluo-3 in HEK 293 4.0-7 cells stably transfected with hPCaR
Format: cell-based
Details: fluo-3 fluorescence (485/530 nm), effect on [Ca^2+]i
How it was run: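 Cytosolic [Ca2+] was read as fluo-3 fluorescence (ex 485/em 530 nm) after compound addition to washed cells. Cells were hPCaR-transfected HEK 293 clone 7, dye-loaded 30 min at 37 °C with 2 μM fluo-3 acetoxymethyl ester in HEPES-buffered saline pH 7.45 containing 1 mM CaCl2 and 0.5% BSA.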

EC50, ≤ 10 µM:
COc1cccc([C@@H](C)NCc2ccc(C(F)(F)F)c(-c3ccc(C(F)(F)F)cc3)c2)c1 [(1R)-N-((4′,6-bis(trifluoromethyl)-1,1′-biphenyl-3-yl)methyl)-1-(3-(methyloxy)phenyl)ethanamine]
COc1ccc(-c2cccc(CN[C@H](C)c3cccc(OC)c3)c2)cc1 [(1R)-N-((4′-(methyloxy)-1,1′-biphenyl-3-yl)methyl)-1-(3-(methyloxy)phenyl)ethanamine]
COc1ccc(CN[C@H](C)c2cccc3ccccc23)cc1-c1ccc(S(C)(=O)=O)cc1 [(1R)-N-((6-(methyloxy)-4′-(methylsulfonyl)-1,1′-biphenyl-3-yl)methyl)-1-(1-naphthalenyl)ethanamine]
COc1ccc(CN[C@H](C)c2cccc3ccccc23)cc1-c1ncccn1 [(1R)-N-((4-(methyloxy)-3-(2-pyrimidinyl)phenyl)methyl)-1-(1-naphthalenyl)ethanamine]
COc1ccc(CN[C@H](C)c2cccc3ccccc23)cc1-c1ccc2nccn2c1 [(1R)-N-((3-imidazo[1,2-a]pyridin-6-yl-4-(methyloxy)phenyl)methyl)-1-(1-naphthalenyl)ethanamine]
COc1cccc([C@@H](C)NCc2ccc(OC)c(-c3ccc(S(C)(=O)=O)cc3)c2)c1 [(1R)-N-((6-(methyloxy)-4′-(methylsulfonyl)-1,1′-biphenyl-3-yl)methyl)-1-(3-(methyloxy)phenyl)ethanamine]
COc1ccc(CN[C@H](C)c2cccc3ccccc23)cc1-c1ccc2c(c1)ncn2C [(1R)-N-((3-(1-methyl-1H-benzimidazol-5-yl)-4-(methyloxy)phenyl)methyl)-1-(1-naphthalenyl)ethanamine]
COc1ccc([C@@H](C)NCc2cccc(-c3cnccn3)c2)cc1 [(1R)-1-(4-(methyloxy)phenyl)-N-((3-(2-pyrazinyl)phenyl)methyl)ethanamine]
COc1cccc([C@@H](C)NCc2ccc(OC)c(-c3ccc4nsnc4c3)c2)c1 [(1R)-N-((3-(2,1,3-benzothiadiazol-5-yl)-4-(methyloxy)phenyl)methyl)-1-(3-(methyloxy)phenyl)ethanamine]
COc1ccc(-c2cccc(CN[C@H](C)c3ccccc3)c2)nn1 [(1R)-N-((3-(6-(methyloxy)-3-pyridazinyl)phenyl)methyl)-1-phenylethanamine]
COc1ccc(CN[C@H](C)c2ccc3ccccc3c2)cc1-c1ccsc1 [(1R)-N-((4-(methyloxy)-3-(3-thienyl)phenyl)methyl)-1-(2-naphthalenyl)ethanamine]
COc1cccc([C@@H](C)NCc2ccc(OC)c(-c3cccc(C(N)=O)c3)c2)c1 [2′-(methyloxy)-5′-((((1R)-1-(3-(methyloxy)phenyl)ethyl)amino)methyl)-1,1′-biphenyl-3-carboxamide]
COc1cccc([C@@H](C)NCc2ccc(OC)c(-c3ccc4c(ccn4CC4CC4)c3)c2)c1 [(1R)-N-((3-(1-(cyclopropylmethyl)-1H-indol-5-yl)-4-(methyloxy)phenyl)methyl)-1-(3-(methyloxy)phenyl)ethanamine]
COCCn1cc(-c2cc(CN[C@H](C)c3cccc(OC)c3)ccc2OC)ccc1=O [1-(2-(methyloxy)ethyl)-5-(2-(methyloxy)-5-((((1R)-1-(3-(methyloxy)phenyl)ethyl)amino)methyl)phenyl)-2-(1H)-pyridinone]
C[C@@H](NCc1cccc(-c2cnccn2)c1)c1ccccc1 [(1R)-1-phenyl-N-((3-(2-pyrazinyl)phenyl)methyl)ethanamine]
COc1cccc(-c2cc(CN[C@H](C)c3ccccc3)ccc2OC)c1 [Example 449, (1R)-N-((3′,6-bis(methyloxy)-1,1′-biphenyl-3-yl)methyl)-1-phenylethanamine]
COCC(=O)N1CCC(c2cc(CN[C@H](C)c3cccc4ccccc34)ccc2OC)CC1 [(1R)-N-((4-(methyloxy)-3-(1-((methyloxy)acetyl)-4-piperidinyl)phenyl)methyl)-1-(1-naphthalenyl)ethanamine]
COc1cccc([C@@H](C)NCc2ccc(OC)c(-c3nnc(C(F)(F)F)o3)c2)c1 [(1R)-1-(3-(methyloxy)phenyl)-N-((4-(methyloxy)-3-(5-(trifluoromethyl)-1,3,4oxadiazol-2-yl)phenyl)methyl)ethanamine]
COc1ccc(CN[C@H](C)c2ccc(C)cc2)cc1-c1ccccc1 [(1R)-N-((6-(methyloxy)-1,1′-biphenyl-3-yl)methyl)-1-(4-methylphenyl)ethanamine]
COc1ccc(CN[C@H](C)c2ccccc2)cc1-c1ccnc(Cl)c1 [(1R)-N-(3-(2-chloropyrid-4-yl)-4-methoxyphenyl)methyl-N-1-phenylethylamine]
CCNC(=O)Nc1ccc(CN[C@H](C)c2cccc(OC)c2)cc1-c1ccc(OC)cc1 [N-ethyl-N′-(4′-(methyloxy)-5-((((1R)-1-(3-(methyloxy)phenyl)ethyl)amino)methyl)-1,1′-biphenyl-2-yl)urea]
COc1ccc(CN[C@H](C)c2cccc(F)c2)cc1-c1ccc(C(F)(F)F)cc1 [(1R)-1-(3-fluorophenyl)-N-((6-(methyloxy)-4′-(trifluoromethyl)-1,1′-biphenyl-3-yl)methyl)ethanamine]
COc1ccc(CN[C@H](C)c2cccc3ccccc23)cc1-c1nccs1 [(1R)-N-((4-(methyloxy)-3-(1,3-thiazol-2-yl)phenyl)methyl)-1-(1-naphthalenyl)ethanamine]
COc1ccccc1-c1cc(CN[C@H](C)c2ccccc2)ccc1OC [Example 253, (1R)-N-((2′,6-bis(methyloxy)-1,1′-biphenyl-3-yl)methyl)-1-phenylethanamine]
C[C@@H](NCc1cccc(-c2ccoc2)c1)c1cccc2ccccc12 [Example 225, (1R)-N-((3-(3-furanyl)phenyl)methyl)-1-(1-naphthalenyl)ethanamine]
COc1ccc(CNC(C)c2ccc(F)cc2)cc1-c1ccc(C(F)(F)F)cc1 (centres unmarked) [1-(4-fluorophenyl)-N-((6-(methyloxy)-4′-(trifluoromethyl)-1,1′-biphenyl-3-yl)methyl)ethanamine]
COc1ccc(CN[C@H](C)c2cccc3ccccc23)cc1C1CCN(C)CC1 [(1R)-N-((4-(methyloxy)-3-(1-methyl-4-piperidinyl)phenyl)methyl)-1-(1-naphthalenyl)ethanamine]
COc1ccc(CN[C@H](C)c2cccc(Cl)c2)cc1-c1ccc(C(F)(F)F)cc1 [(1R)-1-(3-chlorophenyl)-N-((6-(methyloxy)-4′-(trifluoromethyl)-1,1′-biphenyl-3-yl)methyl)ethanamine]
COc1ccc(CN[C@H](C)c2ccccc2)cc1N1CCCC1 [(1R)-N-((4-(methyloxy)-3-(1-pyrrolidinyl)phenyl)methyl)-1-phenylethanamine]
COc1ccc([C@@H](C)NCc2ccc(OC)c(-c3nccs3)c2)cc1 [(1R)-1-(4-(methyloxy)phenyl)-N-((4-(methyloxy)-3-(1,3-thiazol-2-yl)phenyl)methyl)ethanamine]
COc1ccc([C@@H](C)NCc2ccc(OC)c(-c3ccccc3)c2)cc1 [(1R)-N-((6-(methyloxy)-1,1′-biphenyl-3-yl)methyl)-1-(4-(methyloxy)phenyl)ethanamine]
COc1cccc([C@@H](C)NCc2cccc(-c3ccc(OC)nn3)c2)c1 [(1R)-1-(3-(methyloxy)phenyl)-N-((3-(6-(methyloxy)-3-pyridazinyl)phenyl)methyl)ethanamine]
COc1ccc(CN[C@H](C)c2ccccc2)cc1-c1ccc(N(C)C)nc1 [N,N-dimethyl-5-(2-(methyloxy)-5-((((1R)-1-phenylethyl)amino)methyl)phenyl)-2-pyridinamine]
COc1ccc(CN[C@H](C)c2cccc3ccccc23)cc1-c1ccc(C(F)(F)F)cc1 [(1R)-N-((6-(methyloxy)-4′-(trifluoromethyl)-1,1′-biphenyl-3-yl)methyl)-1-(1-naphthalenyl)ethanamine]
COc1cccc([C@@H](C)NCc2cccc(-c3ccoc3)c2)c1 [Example 222, (1R)-N-((3-(3-furanyl)phenyl)methyl)-1-(3-(methyloxy)phenyl)ethanamine]
